One assay concerns washed platelets. Kind of assay: Dense granule secretion (ATP, lumi-aggregometer). In kind it is cell-based, human. The conditions noted are these: 10 μM; collagen 1 μg/mL; vehicle 1.25 nM. As to the method: (§1) Human Platelet Preparation: 50 mL of blood was drawn from drug free, consenting individuals, into a syringe containing 5 mL sodium citrate (4% w/v) and 7.5 mL warmed ACD (85 mM sodium citrate, 71 mM citric acid and 110 mM glucose). Blood was centrifuged at 102 g for 20 minutes to obtain platelet-rich plasma (PRP), which was then decanted and 104 prostacyclin (PGI2 125 μg/mL, solubilized in ethanol) added. Platelets were pelleted by centrifugation at 1413 g for 10 minutes, platelet poor plasma was discarded and the pellet resuspended in 25 mL Tyrode's-HEPES buffer (134 mM NaCl, 2.9 mM KCl, 0.34 mM Na2HPO4, 12 mM NaHCO3, 20 mM HEPES, 1 mM MgCl2 and 5 mM glucose pH 7.3), 3 mL of ACD and 10 μL PGI2 were added and then following centrifugation at 1413 g for 10 minutes, the platelet pellet was re-suspended to the appropriate cell density using Tyrode's buffer. Platelets were rested for 30 minutes at 30° C. to allow platelet responses to recover.
Dense granule secretion: 395 μL of washed platelets were added to a cuvette and incubated with 5 μL of zafirlukast or vehicle (0.1% (v/v) DMSO) for 3 minutes at 37° C. 50 μL Chronolume substrate was added and incubated for a further 2 minutes. […]
Washed platelets (4×10^8 cells/mL), were pre-treated with zafirlukast (0.1-10 μM) or vehicle for 3 minutes. […] Statistical analysis was calculated using a one-way ANOVA (n=3), *P<0.05.

In assay [1] the test system is integrin αIIbβ3 on washed platelets. In words: Integrin activation (PAC-1 antibody binding) by flow cytometry. The conditions noted are these: CRP-XL stimulated. Type of assay: cell-based, human. On the procedure: as §1, with “Platelets were rested for 30 minutes at 30° C. to allow platelet responses to recover.” left out
Flow Cytometry: 5 μL platelets (2×10^8 cells/mL) was added to 42 μL HEPES-buffered saline with 1 mM Ca2+. […] Samples were then fixed with 450 μL of 0.2% (v/v) paraformaldehyde and analyzed on an accuri C6 flow cytometer (BD Biosciences, UK), with the threshold set to 20,000. Platelet populations were gated and 10,000 events recorded.
Washed platelets (2×10^8 cells/mL) were incubated with vehicle, zafirlukast (0.6-10 μM) or montelukast (0.6-10 μM) for 5 minutes. […] Data were analyzed using one-way ANOVA, n=3.
Background: In flow cytometry, cells or beads pass a laser one at a time.

The subject of the next assay is whole human blood. Kind of assay: Thrombus formation under flow (in vitro, collagen coated Cellix capillaries). In kind it is cell-based. As to the method: Thrombus Formation under flow: Human blood was drawn into 3.2% (w/v) sodium citrate and labelled with 2 μM DIOC-6 for an hour. A […] biochip was coated with 1 μL Collagen (100 μg/mL) for 1 hour. Blood was then incubated with vehicle (0.1% (v/v) DMSO) or zafirlukast (10 μM) for 5 minutes prior to perfusion over collagen coated Cellix microfluidic cells at a shear rate of 20 dynes/cm^2. Images were recorded for 10 minutes perfusion by confocal microscopy (Nikon Al Microscope, Nikon, Japan) and analyzed using ImageJ. Whole human blood labelled with the lipophilic dye DIOC-6 was incubated with zafirlukast (10 μM) or vehicle (0.1% (v/v) DMSO) for 5 minutes before perfusion over […] capillaries coated with collagen (100 μg/mL) at an arterial shear rate of 20 dynes/cm^2. Images were recorded for 10 minutes using confocal microscopy and analyzed using ImageJ. The median fluorescence intensity was determined and compared to max intensity response; the more intense the fluorescence the larger the volume of thrombus formed.

The test system of another assay is HCT116 cells. In words: PrestoBlue cell proliferation assay, HCT116. In kind it is cell-based, human. The conditions noted are these: HCT116, colon cancer, 24 hours treatment. As to the method:
(§2) Cells were plated at 6,000 cells/well in a 96-well plate and treated with the indicated concentration of zafirlukast 24 hours later. Cells were allowed to grow for an additional 24 hours before alterations in growth were measured by the PrestoBlue cell proliferation assay in triplicate. Fluorescence readings with an excitation at 570 nm and emission of 600 nm were collected and treated samples were converted to a percentage of the untreated controls. OVCar8 (human ovarian cancer cell line), HCT116 (human colon cancer), HeLa (cervical cancer cell line) and MDA-MB-231 (breast cancer cell line) cell lines were examined for their ability to inhibit cell proliferation. […] Table 1 illustrates the results of a cell proliferation assay testing zafirlukast against OVCar8 cells, HCT116 cells, HeLa cells and MDA-MB-231 cells.

Another assay concerns HeLa cells. In words: PrestoBlue cell proliferation assay, HeLa. Type of assay: cell-based. As to the method: as §2
For the next assay, the system named is MDA-MB-231 cells. In words: PrestoBlue cell proliferation assay, MDA-MB-231. Type of assay: cell-based. As to the method: as §2
A further assay concerns platelets. In words: α-granule secretion of platelets. Type of assay: cell-based, human. To be noted: 0.1 μM-10 μM. As to the method: Platelet responses in the presence of zafirlukast, (0.1 μM-10 μM) were tested in a range of platelet functional assays including aggregation, granule secretion and spreading studies.
Flow Cytometry: 5 μL platelets (2×10^8 cells/mL) was added to 42 μL HEPES-buffered saline with 1 mM Ca2+. To this, 0.5 μL zafirlukast (0.6 μM-10 μM) or montelukast (0.6 μM-10 μM) or vehicle (0.1% (v/v) DMSO) was added and incubated for 5 minutes. 1 μL anti-human CD62p (1:500 dilution) and 1 μL anti-fibrinogen FITC conjugate (1:500 dilution) or 2 μL of anti-PAC-1 antibody were added to samples. Platelets were treated with 5 μL CRP-XL (1 ug/mL) or 5 μL Tyrode's for 20 minutes in the dark. Samples were then fixed with 450 μL of 0.2% (v/v) paraformaldehyde and analyzed on an accuri C6 flow cytometer (BD Biosciences, UK), with the threshold set to 20,000. Platelet populations were gated and 10,000 events recorded.

Results on 1 compound are retold here after US11872210B2, “Thiol isomerases inhibitors and use thereof” (WESTERN NEW ENGLAND UNIVERSITY, priority 2017, dated 2024).

Molecules are shown by their SMILES. pIC50: −log10 of the molar value.

In general, inhibition refers to the change of the read-out against control, counted positive when it falls. Broadly, the pIC50 is −log10 of the IC50, conventionally taken in molar units. A lower pIC50 goes with a high IC50. For `COc1cc(C(=O)NS(=O)(=O)c2ccccc2C)ccc1Cc1cn(C)c2ccc(NC(=O)OC3CCCC3)cc12` [zafirlukast, 4-(5-cyclopentyloxycarbonylamino-1-methylindol-3-ylmethyl)-3-methoxy-N-o-tolylsulfonylbenzamide], the “mean ATP secretion” value in the assay on washed platelets is listed as 0.327 nM. For the same compound, the “cell-surface bound PAC-1 antibody (fluorescence)” value in assay [1] (10 μM, vehicle 1623 Au) is reported as 748.5 Au. The inhibition at 10 µM in assay [1] (Homo sapiens, Platelet, PAC-1 binding) worked out at 54%; with whole human blood (Homo sapiens, arterial shear 20 dynes/cm^2, read-out: inhibition of median fluorescence intensity compared to vehicle) it was 14.2%. The “final size of the thrombus (in words)” value in the assay with whole human blood (10 μM, 10 minutes perfusion) was “significantly diminished compared to the vehicle”. Moreover, in the assay on whole human blood (10 μM, after 8 minutes of flow, 20 dynes/cm^2, vehicle 89.15), the “median fluorescence intensity (MFI) of thrombus” value was found to be 74.86 Au. Moreover, the pIC50 with HCT116 cells was 5.30; with HCT116 cells (Homo sapiens, HCT-116, 24 h), 5.00 to 5.30; with HeLa cells (Homo sapiens, cervical cancer, 24 hours treatment) it was 4.52; in the assay with MDA-MB-231 cells (Homo sapiens, MDA-MB-231, breast cancer, 24 hours treatment), 4.00. The “sensitivity of cell proliferation (in words)” value is given as “less sensitive” in the assay with HeLa cells (compared with OVCar8 and HCT116); “less sensitive” with MDA-MB-231 cells (MDA-MB-231, compared with OVCar8 and HCT116). In addition, the “α-granule secretion (in words)” value in the assay with platelets is “inhibit”.
